The values below come from PubChem BioAssay (NCI).

Among the test systems are MALME-3M melanoma; SF-268 CNS; SK-MEL-2 melanoma; HOP-62 NSCLC; NCI-H460 lung; OVCAR-4 ovarian; MDA-MB-231 breast; OVCAR-3 ovarian; PC-3 prostate; CCRF-CEM leukemia.
Common to all, as to assay: growth of human tumour cells (NCI), 48 h

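Results reflect a 48-hour exposure of cells in 96-well plates to compound at five concentrations. GI50 = concentration required for 50% inhibition of growth. The concentration for full growth arrest is given as TGI.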

Turning to `COc1ccc(/C=C/c2nc(NCCCN(C)C)c3ccccc3n2)cc1`, the GI50 with MALME-3M melanoma is 1.62 µM; in the assay with SF-268 CNS, 1.86 µM; with SK-MEL-2 melanoma, 1.88 µM; in the assay with HOP-62 NSCLC, 5.16 µM; with NCI-H460 lung, 2.19 µM; in the assay with OVCAR-4 ovarian it was 2.07 µM. In addition, the GI50 with MDA-MB-231 breast is 1.99 µM; with OVCAR-3 ovarian it was 4.88 µM; in the assay on PC-3 prostate, 3.35 µM; with CCRF-CEM leukemia, 2.02 µM. Besides, the TGI in the assay on MALME-3M melanoma stood at 3.18 µM; with SF-268 CNS it was 4.17 µM; with SK-MEL-2 melanoma, 3.52 µM; in the assay on HOP-62 NSCLC, 9.74 µM; in the assay on NCI-H460 lung, 4.7 µM; with OVCAR-4 ovarian, 5.58 µM. Besides, the TGI in the assay on MDA-MB-231 breast came out at 5.24 µM; with OVCAR-3 ovarian it was 11.4 µM; with PC-3 prostate it was 15.2 µM; with CCRF-CEM leukemia, 4.53 µM.
For `N=C(N=C(N)N)N1CCN(c2ccncc2)CC1`, the GI50 with MALME-3M melanoma, in the assay with SF-268 CNS, with SK-MEL-2 melanoma, in the assay with HOP-62 NSCLC, in the assay with NCI-H460 lung and in the assay on OVCAR-4 ovarian was over 1000 µM each time. For the same molecule, the GI50 in the assay with MDA-MB-231 breast, in the assay with OVCAR-3 ovarian, in the assay with PC-3 prostate and in the assay with CCRF-CEM leukemia was over 1000 µM each time. Besides, the TGI with MALME-3M melanoma, in the assay with SF-268 CNS, with SK-MEL-2 melanoma, in the assay with HOP-62 NSCLC, with NCI-H460 lung and in the assay with OVCAR-4 ovarian was over 1000 µM throughout. The TGI in the assay on MDA-MB-231 breast, in the assay on OVCAR-3 ovarian, in the assay on PC-3 prostate and with CCRF-CEM leukemia was over 1000 µM each time.
On to `CCCCCCCCCCN(CCCCCCCCCC)CC(=O)c1ccc2cc(Br)c3ccccc3c2c1`, for which the GI50 with MALME-3M melanoma was 1.71 µM; in the assay with SF-268 CNS, 3.07 µM; in the assay with SK-MEL-2 melanoma, 1.84 µM; with HOP-62 NSCLC, 1.63 µM; in the assay on NCI-H460 lung, 1.98 µM; with OVCAR-4 ovarian, 2.38 µM. For the same molecule, the GI50 is 1.67 µM in the assay on MDA-MB-231 breast, 1.98 µM in the assay on OVCAR-3 ovarian, 2.67 µM with PC-3 prostate and 2.36 µM in the assay on CCRF-CEM leukemia. For the same molecule, the TGI is 3.57 µM in the assay on MALME-3M melanoma; 9.47 µM with SF-268 CNS; 3.48 µM in the assay on SK-MEL-2 melanoma; 3.4 µM in the assay on HOP-62 NSCLC; 3.98 µM in the assay with NCI-H460 lung; 5.16 µM in the assay on OVCAR-4 ovarian. Further, the TGI came out at 3.26 µM in the assay with MDA-MB-231 breast, 3.54 µM in the assay on OVCAR-3 ovarian, 8.95 µM in the assay with PC-3 prostate and 6.96 µM with CCRF-CEM leukemia.
Consider `N#Cc1c(-c2ccccc2)cc(-c2ccc(Nc3nc(Nc4ccc(Cl)cc4)nc(Nc4ccc(Cl)cc4)n3)cc2)nc1N`, for which the GI50 in the assay with MALME-3M melanoma was 1.69 µM; in the assay with SF-268 CNS, 4.33 µM; in the assay with SK-MEL-2 melanoma, 1.54 µM; with HOP-62 NSCLC, 19.1 µM; with NCI-H460 lung, 3.47 µM; with OVCAR-4 ovarian, 4.06 µM. Further, the GI50 with MDA-MB-231 breast is 1.76 µM; in the assay on OVCAR-3 ovarian it was 1.7 µM; in the assay with PC-3 prostate, 1.89 µM; with CCRF-CEM leukemia, 3.1 µM. Besides, the TGI was 3.62 µM with MALME-3M melanoma; 19.7 µM in the assay with SF-268 CNS; 3.44 µM with SK-MEL-2 melanoma; 35 µM in the assay with HOP-62 NSCLC; 15.8 µM in the assay on NCI-H460 lung; over 100 µM in the assay with OVCAR-4 ovarian. For the same molecule, the TGI in the assay with MDA-MB-231 breast was determined as 4.89 µM; with OVCAR-3 ovarian, 3.68 µM; in the assay with PC-3 prostate, 6.76 µM; in the assay on CCRF-CEM leukemia, 9.4 µM.
As for `C#CC1(O)C(COP(=O)(O)OC2CC(n3cc(F)c(=O)[nH]c3=O)OC2CO)OC(n2ccc(N)nc2=O)C1O` (stereo not drawn), the GI50 in the assay on MALME-3M melanoma was 0.117 µM; in the assay with SF-268 CNS, under 0.01 µM; in the assay with SK-MEL-2 melanoma it was 0.0735 µM; in the assay on HOP-62 NSCLC, under 0.01 µM; in the assay on NCI-H460 lung it was under 0.01 µM; in the assay with OVCAR-4 ovarian it was 0.143 µM. Further, the GI50 was 0.0731 µM in the assay on MDA-MB-231 breast, 0.031 µM in the assay with OVCAR-3 ovarian, under 0.032 µM with PC-3 prostate and under 0.0129 µM with CCRF-CEM leukemia. Also, the TGI is 5.07 µM in the assay with MALME-3M melanoma; 13.5 µM with SF-268 CNS; 1.66 µM with SK-MEL-2 melanoma; over 100 µM in the assay on HOP-62 NSCLC; over 32.1 µM in the assay with NCI-H460 lung; 8.49 µM in the assay on OVCAR-4 ovarian. For the same molecule, the TGI with MDA-MB-231 breast is over 61.9 µM; with PC-3 prostate, 29.7 µM.
Regarding `NC(=O)c1cc(Br)cc(C2CCCCC2)c1O`, the GI50 with MALME-3M melanoma is 19.6 µM; in the assay on SF-268 CNS, 11.4 µM; in the assay on SK-MEL-2 melanoma, 15.8 µM; in the assay on HOP-62 NSCLC it was 14.1 µM; with NCI-H460 lung, 15.6 µM; in the assay on OVCAR-4 ovarian, 12.9 µM. Also, the GI50 in the assay on MDA-MB-231 breast is 12.1 µM; with OVCAR-3 ovarian, 13.2 µM; with PC-3 prostate, 12.8 µM; in the assay with CCRF-CEM leukemia, 15.1 µM. Besides, the TGI in the assay with MALME-3M melanoma amounted to 35.9 µM; in the assay with SF-268 CNS, 25 µM; in the assay with SK-MEL-2 melanoma, 29.7 µM; in the assay on HOP-62 NSCLC it was 28.4 µM; in the assay with NCI-H460 lung, 30.5 µM; in the assay with OVCAR-4 ovarian, 25.6 µM. Moreover, the TGI in the assay with MDA-MB-231 breast was 25.3 µM; with OVCAR-3 ovarian, 25.9 µM; in the assay with PC-3 prostate, 26.4 µM; in the assay with CCRF-CEM leukemia, 39.8 µM.
As to `O=C(c1ccc2ncc(-c3nc(NC4CC4)ncc3F)n2c1)N1CCOCC1`, the GI50 in the assay with MALME-3M melanoma is 3.33 µM; in the assay with SF-268 CNS it was 2.53 µM; in the assay with SK-MEL-2 melanoma, 1.66 µM; in the assay on HOP-62 NSCLC, 2.95 µM; with NCI-H460 lung, 2.91 µM; in the assay on OVCAR-4 ovarian it was 2.8 µM. Besides, the GI50 was 2.4 µM in the assay with MDA-MB-231 breast, 2.21 µM in the assay with OVCAR-3 ovarian, 2.14 µM with PC-3 prostate and 1.72 µM with CCRF-CEM leukemia. For the same molecule, the TGI is 8.35 µM in the assay on MALME-3M melanoma; 7.12 µM in the assay with SF-268 CNS; 3.81 µM with SK-MEL-2 melanoma; 8.28 µM in the assay on HOP-62 NSCLC; over 100 µM in the assay with NCI-H460 lung; 10.9 µM with OVCAR-4 ovarian. Moreover, the TGI in the assay with MDA-MB-231 breast came out at 8.98 µM; in the assay on OVCAR-3 ovarian, 7.22 µM; with PC-3 prostate, 8.86 µM; in the assay with CCRF-CEM leukemia it was 4.74 µM.
